According to patent publication US9670482B2, “Multispecific peptides” (BICYCLE THERAPEUTICS LIMITED, priority 2009, dated 2017):
Like-named read-outs stand apart in the source and are kept apart here. Residues, ends and D or L forms follow the SMILES beside them. No end group written: not given here.

How the values were obtained:
[1] = target: bovine serum albumin (BSA) (Bos taurus, UniProt P02769); assay: Fluorescence anisotropy titration with BSA
Excerpt: For determining the affinity constant (Kd) of a fluorophore to target protein, we chose fluorescence anisotropy titrations.
Excitation was specific for coumarin (328 nm), and emission at 393 nm.
To determine whether a neighbouring group (here, Gly) on Fmoc affects binding to BSA, a similar experiment was run with Fmoc-Gly-OH (Nova Biochem). The intrinsic fluorescing properties of Fmoc were used for the anisotropy experiments.
To determine whether a neighbouring hydrophobic bulky group has an enhancing or adverse effect on BSA binding, Fmoc-Phe-OH was tested as above.
The solid phase resin employed was PAL-PEG-PS from Applied Biosystems. […] All peptides were capped with an N-terminal Fmoc, and a C-terminal amide (NH2). After cleavage, peptides were lyophilised, and solubilised in 5 mL of DMF. 100 μl of this was loaded onto an analytical C18 column using a Waters HPLC, using methanol and water (both in the presence of 0.1% TFA) as solvents. […] The peptide concentration in the cuvette was 200 nM.
Excitation was at 299 nm (to minimise Trp absorption), and emission at 320 nm. Slit widths were at 5 and 12 nm, respectively.
Peptide concentrations were estimated by the absorbance at 299 nm, using the extinction coefficient of 4700/M/cm. Excitation was at 299 nm, and emission was set to 320 nm, at slit widths of 5 and 12 nm, respectively.

[2] = target: Human Serum Albumin (HSA) (Homo sapiens, UniProt P02768); assay: Fluorescence anisotropy titration with HSA; assay type: binding; details: 200 nM fluorophore; Hill equation; Kd cannot be determined accurately
Human Serum Albumin (HSA), sequence (P02768 25-609): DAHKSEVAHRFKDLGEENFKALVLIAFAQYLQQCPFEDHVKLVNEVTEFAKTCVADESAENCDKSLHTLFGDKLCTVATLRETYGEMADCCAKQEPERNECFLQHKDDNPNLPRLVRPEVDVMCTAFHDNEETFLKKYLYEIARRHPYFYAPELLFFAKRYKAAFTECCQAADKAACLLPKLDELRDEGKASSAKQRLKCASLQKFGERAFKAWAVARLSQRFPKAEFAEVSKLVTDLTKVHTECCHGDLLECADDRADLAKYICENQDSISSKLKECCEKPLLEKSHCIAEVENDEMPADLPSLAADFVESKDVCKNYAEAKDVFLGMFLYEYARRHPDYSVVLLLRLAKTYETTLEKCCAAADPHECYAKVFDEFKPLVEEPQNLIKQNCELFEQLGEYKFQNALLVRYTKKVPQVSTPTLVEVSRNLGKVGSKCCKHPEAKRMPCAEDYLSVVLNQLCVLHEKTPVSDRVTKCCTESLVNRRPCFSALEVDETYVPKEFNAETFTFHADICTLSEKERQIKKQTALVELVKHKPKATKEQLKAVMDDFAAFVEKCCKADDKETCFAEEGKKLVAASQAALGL

[3] = Solubility in water; assay type: physicochemical
[4] = target: T1, MDM2 (res 2-125) (Homo sapiens, UniProt Q00987); assay: Fluorescence anisotropy titration with MDM2; assay type: binding
T1 construct: made in house
T1 sequence (Q00987 2-125): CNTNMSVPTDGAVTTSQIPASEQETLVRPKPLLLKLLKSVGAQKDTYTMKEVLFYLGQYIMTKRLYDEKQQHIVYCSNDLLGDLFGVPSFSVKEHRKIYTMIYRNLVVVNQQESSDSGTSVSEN
Protocol: Titration experiments were run on a Horiba Jobin Yvon fluorimeter equipped with the Hamilton Microlab titrator controlled by laboratory software. The λex and λem used were 295 nm and 350 nm, respectively. The slit widths for excitation and emission were 5 nm and 15 nm and the integration time 10 s was used for each measurement. The intrinsic fluorescence of tryptophan in peptides 10, 48 was used to measure their binding affinity for MDM2 (res 2-125). The experiments were performed at 23 C.° in PBS, 5 mM DTT. Usually 250 ul of MDM2 (150 uM) was titrated into 1.2 ml of peptide (1 uM). Titration data were analyzed with a standard 1:1 binding model by using the quadratic solution to the equilibrium Kd=[A][B]/[AB]. […] The fitting equation contained an extra term to account for linear drift.
Mdm2 binds the complete PEP48 peptide with good affinity. We now determined whether Mdm2 binding is still functional within the Fmoc-Trp-linker-bicyclic derivative. 250 μL of 18.8 μM Mdm2 (expressed and purified as described in Teufel et al, PNAS 2007) was titrated into 1.2 ml of 500 nM peptide. A strong binding event occurred (Kd<1 μM), however, the data could not be fitted as the Kd was too far below the concentration of peptide employed in the experiment (FIG. 9). Lower concentrations of peptide could not be used due to technical limitations. Accurate determination of dissociation constants of this peptide to Mdm2 will require a better fluorophore than Fmoc (see above), or different methodologies such as isothermal titration calorimetry (ITC).

[5] = target: T2, Kallikrein (Homo sapiens, UniProt P03952); assay: Kallikrein assays (Z-Phe-Arg-amc substrate); assay type: biochemical
T2 construct: purchased Sigma Aldrich
T2 sequence (P03952 20-638): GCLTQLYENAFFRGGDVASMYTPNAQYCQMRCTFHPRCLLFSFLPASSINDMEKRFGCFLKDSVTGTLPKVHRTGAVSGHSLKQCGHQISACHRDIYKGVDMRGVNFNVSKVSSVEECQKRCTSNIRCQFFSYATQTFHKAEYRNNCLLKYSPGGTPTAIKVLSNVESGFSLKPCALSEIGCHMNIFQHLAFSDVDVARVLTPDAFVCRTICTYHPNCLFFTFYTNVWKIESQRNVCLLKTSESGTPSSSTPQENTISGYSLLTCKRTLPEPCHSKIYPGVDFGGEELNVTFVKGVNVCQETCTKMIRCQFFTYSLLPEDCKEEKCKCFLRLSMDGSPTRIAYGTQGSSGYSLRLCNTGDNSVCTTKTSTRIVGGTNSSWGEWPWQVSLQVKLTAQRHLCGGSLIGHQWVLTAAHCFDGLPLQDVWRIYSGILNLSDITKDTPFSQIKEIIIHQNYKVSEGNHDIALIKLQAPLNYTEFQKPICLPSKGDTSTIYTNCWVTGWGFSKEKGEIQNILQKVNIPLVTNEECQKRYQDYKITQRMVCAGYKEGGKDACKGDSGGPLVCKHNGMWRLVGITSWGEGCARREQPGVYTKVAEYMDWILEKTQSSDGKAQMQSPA
Protocol: Enzymes were purchased from Sigma Aldrich and substrates from Bachem A G. The assay buffer is composed of 10 mM Tris pH 7.4, 150 mM NaCl, 10 mM MgCl2, 1 mM CaCl2, 0.1% BSA, 0.01% Triton X100 and 5% DMSO. Enzymes are incubated with inhibitors for 30 minutes at RT prior to addition of substrate. All experiments were recorded at 30° C. for 90 minutes.
Assays were performed on a BMG Pherastar plate reader at wavelengths of exc/em 350/450 nm. Kallikrein was bought as a solution of 1080 μg/mL and diluted to a working concentration of 0.3 nM in assay buffer. Substrate Z-Phe-Arg-amc was solubilised at the stock concentration of 10 mM in DMSO and diluted to a working concentration of 300 μM with assay buffer. Inhibitors were solubilised in assay buffer to a stock concentration of 60 μM. 50 μL of each reagent is introduced in wells for a final volume of 150 μL per well. Final concentration of kallikrein in assay is 0.1 nM and substrate is 100 μM.
Final concentrations of inhibitors were: 0.5 nM, 1 nM, 2 nM, 5 nM, 8 nM, 10 nM, 20 nM, 50 nM, 80 nM, 100 nM, 200 nM, 500 nM, 800 nM, 1 μM, 2 μM, 5 μM, 8 μM, 10 μM and 20 μM. The initial rate of the reaction is obtained by plotting fluorescence=f (time) data and by fitting a linear trendline for each concentration of inhibitor. The inhibition curves are obtained by plotting initial rate=f ([I]) and IC50 values can be evaluated.

[6] = test system: HCT116 cells; assay: Live cell imaging of peptide uptake, HCT116; assay type: cell-based, Human; details: fluorescein-labelled TBMB conjugates, 10 μM
Protocol: Two cell lines, HeLa and HCT116, were used for these experiments. HeLa is a Human cervix epitheloid carcinoma and HCT116 is a Human colon carcinoma. Both cell types are widely available; for instance, HeLa cells are available from the UK HPA under catalogue number 93021013. HCT116 cells are available from the UK HPA under catalogue number 91091005.
Cells were seeded in Lab-Tek chambered borosilicate coverglass (Nunc). After culturing for 48 hrs (cells reached 40-60% confluency), media was removed and a fresh media supplemented with 10 μM of peptides was added to the cells. Cells were cultivated for a further 3.5 hrs or 24 hrs. At the end of the incubation time cells were washed 3×DMEM and finally resuspended in DMEM complete media supplemented with 10 mM HEPES buffer. Live cell imaging was performed on a laser scanning microscope (LSM 710, Zeiss), differential interference contrast (DIC) and fluorescent images were taken.
The cells were cultured in Dulbecco's Modified Eagle's Medium (DMEM, GIBCO) and supplemented with 10% (v/v) of heat-inactivated fetal bovine serum, 2 mM L-glutamine, 10 U/ml penicillin, and 100 ug/ml streptomycin (DMEM complete media) at 37° C. in a 5% CO2 atmosphere.

bovine serum albumin (BSA), sequence (P02769 25-607): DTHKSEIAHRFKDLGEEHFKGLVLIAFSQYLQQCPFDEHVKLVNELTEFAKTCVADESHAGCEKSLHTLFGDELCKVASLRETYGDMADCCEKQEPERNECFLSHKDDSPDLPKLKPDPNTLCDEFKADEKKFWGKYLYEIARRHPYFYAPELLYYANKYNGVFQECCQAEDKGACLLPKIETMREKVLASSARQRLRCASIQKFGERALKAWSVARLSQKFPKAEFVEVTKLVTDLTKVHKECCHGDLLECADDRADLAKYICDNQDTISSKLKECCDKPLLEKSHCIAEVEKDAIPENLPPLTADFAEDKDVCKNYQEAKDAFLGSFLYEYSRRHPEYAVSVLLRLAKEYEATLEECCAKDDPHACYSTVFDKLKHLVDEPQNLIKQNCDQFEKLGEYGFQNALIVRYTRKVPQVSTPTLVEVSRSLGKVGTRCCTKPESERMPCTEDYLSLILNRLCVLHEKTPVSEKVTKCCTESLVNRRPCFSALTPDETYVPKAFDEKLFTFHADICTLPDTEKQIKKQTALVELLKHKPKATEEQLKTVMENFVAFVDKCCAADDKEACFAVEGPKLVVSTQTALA

Work on `O=C(NC(Cc1ccccc1)C(=O)O)OCC1c2ccccc2-c2ccccc21` (centres unmarked) [Fmoc-Phe-OH] yielded a Kd [1] of about 100 nM and a Kd [2] of about 10 nM.

For `CC(C)[C@@H]1NC(=O)[C@@H](NC(=O)[C@H](C)NC(=O)CNC(=O)CNC(=O)CNC(=O)[C@H](Cc2c[nH]c3ccccc23)NC(=O)OCC2c3ccccc3-c3ccccc32)CSCc2cc3cc(c2)CSC[C@H](NC(=O)[C@H]([C@@H](C)O)NC(=O)[C@H](Cc2c[nH]c4ccccc24)NC(=O)CNC(=O)[C@H](Cc2ccccc2)NC(=O)[C@H](CCCNC(=N)N)NC1=O)C(=O)N[C@@H](CO)C(=O)N[C@@H](CC(=O)O)C(=O)N[C@@H](CCCNC(=N)N)C(=O)N[C@@H](Cc1ccccc1)C(=O)N[C@@H](CCCNC(=N)N)C(=O)N[C@@H](CC(N)=O)C(=O)N[C@H](C(=O)NCC(N)=O)CSC3` [FmocPEP48L1-PK15L1 bicyclic] (HELM PEPTIDE1{[O=C(OCC1c2ccccc2-c2ccccc21)[*:2]].W.G.G.G.A.C.V.R.F.G.W.T.C.S.D.R.F.R.N.C.G.[am]}|CHEM1{[c1c(C[*:1])cc(C[*:3])cc1C[*:2]]}$PEPTIDE1,CHEM1,7:R3-1:R1|PEPTIDE1,CHEM1,14:R3-1:R2|PEPTIDE1,CHEM1,21:R3-1:R3$$$V2.0), the Kd ([1]; Kd for BSA, fluorescence anisotropy in PBS) was about 60 nM, the solubility in water [3] was “not well soluble in water” and the Kd [4] was under 1000 nM. The Kd ([4]; read-out: Kd for Mdm2, 18.8 μM Mdm2 titrated into 500 nM peptide, data could not be fitted (FIG. 9)) was under 1000 nM, the IC50 ([5]; IC50 for inhibition of kallikrein activity, 0.1 nM kallikrein, 100 μM substrate, 30° C.) was 17000 nM and the IC50 ([5]; IC50 for inhibition of kallikrein, preliminary experiment, restated in Example 3) was about 17000 nM.

For `CC(C)[C@@H]1NC(=O)[C@@H](NC(=O)[C@@H](N)CO)CSCc2cc3cc(c2)CSC[C@H](NC(=O)[C@H]([C@@H](C)O)NC(=O)[C@H](Cc2c[nH]c4ccccc24)NC(=O)CNC(=O)[C@H](Cc2ccccc2)NC(=O)[C@H](CCCNC(=N)N)NC1=O)C(=O)N[C@@H](CC(=O)O)C(=O)N[C@@H](CC(N)=O)C(=O)N[C@@H](CO)C(=O)N[C@@H](Cc1c[nH]c2ccccc12)C(=O)N[C@@H](Cc1c[nH]cn1)C(=O)NCC(=O)N[C@H](C(=O)N[C@@H](CCCCN)C(=O)NCC(=O)O)CSC3` [PEP48] (HELM PEPTIDE1{S.C.V.R.F.G.W.T.C.D.N.S.W.H.G.C.K.G}|CHEM1{[c1c(C[*:1])cc(C[*:3])cc1C[*:2]]}$PEPTIDE1,CHEM1,2:R3-1:R1|PEPTIDE1,CHEM1,9:R3-1:R2|PEPTIDE1,CHEM1,16:R3-1:R3$$$V2.0), the Kd [4] was 500 to 800 nM.

In the case of “Pep48-D3: SCVRFGWTCDNSWHGCKG with C-terminal DDD (control), N-terminal fluorescein or methoxy-coumarin (SCVRFGWTCDNSWHGCKGDDD; cysteine pairing not given here; also: N-terminal fluorescein or methoxy-coumarin)”, the “cell penetration (fluorescent staining within the cell)” value [6] is reported as “not”.

In the case of “Pep48-R3: SCVRFGWTCDNSWHGCKG with C-terminal RRR, N-terminal fluorescein or methoxy-coumarin (SCVRFGWTCDNSWHGCKGRRR; cysteine pairing not given here; also: N-terminal fluorescein or methoxy-coumarin)”, the “cell penetration (fluorescent staining within the cell)” value [6] is reported as “fluorescent staining within the cell”.
